# Key:
# Assay type in all cases: biochemical
# [1] = target: T1, epidermal growth factor receptor kinase (Homo sapiens, UniProt P00533); assay: Inhibition of Epidermal Growth Factor Receptor Kinase (EGF-R) using recombinant enzyme; details: averages of the individual determinations
# T1 construct: containing the EGFR cDNA encoding amino acids 645 - 1186 preceded by Met-Ala-(His)6; made in house; host or cells: Sf9 insect cells, recombinant baculovirus vHcEGFR52
# Experimental: Representative test compounds were evaluated for their ability to inhibit the phosphorylation of the tyrosine residue of a peptide substrate catalyzed by the enzyme epidermal growth factor receptor kinase. […] The enzyme used in this assay is the His-tagged cytoplasmic domain of EGFR. A recombinant baculovirus (vHcEGFR52) was constructed containing the EGFR cDNA encoding amino acids 645 - 1186 preceded by Met-Ala-(His)6. Sf9 cells in 100 mm plates were infected at an moi of 10 pfu/cell and cells were harvested 48 h post infection. A cytoplasmic extract was prepared using 1% Triton X-100 and applied to Ni-NTA column. After washing the column with 20 mM imidazole, HcEGFR was eluted with 250 mM imidazole (in 50 mM Na2HPO4, pH 8.0, 300 mM NaCl). Fractions collected were dialyzed against 10 mM HEPES, pH 7.0, 50 mM NaCl, 10% glycerol, 1ug/mL antipain and leupeptin and 0.1 mM Pefabloc SC. The protein was frozen in dry ice/methanol and stored -70°C.
# Test compounds were made into 10 mg/mL stock solutions in 100% dimethylsulfoxide (DMSO). Prior to experiment, stock solutions were diluted to 500 uM with 100% DMSO and then serially diluted to the desired concentration with HEPES buffer (30 mM HEPES pH 7.4).
# For the enzyme reaction, 10 µL of each inhibitor (at various concentrations) were added to each well of a 96-well plate. To this was added 3 µL of enzyme (1:10 dilution in 10mM HEPES, pH 7.4 for final conc. of 1:120). This was allowed to sit for 10 min on ice and was followed by the addition of 5 µl peptide (80 µM final conc.), 10 µl of 4X Buffer (Table A), 0.25 µL ^33P-ATP and 12 µL H2O. The reaction was allowed to run for 90 min at room temperature and was followed by spotting the entire volume on to precut P81 filter papers. The filter discs were washed 2X with 0.5% phosphoric acid and radioactivity was measured using a liquid scintillation counter.
# The % inhibition of the test compound was determined for at least three different concentrations and the IC50 value was evaluated from the dose response curve. […] CPM(control) is in units of counts per minute and was a number expressing the amount of radiolabled ATP (g-^33P) incorporated into the RR-SRC peptide substrate by the enzyme after 90 minutes at room temperature in the absence of test compound as measured by liquid scintillation counting. The CPM values were corrected for the background counts produced by ATP in the absence of the enzymatic reaction. The IC50 values in TABLE 1 are averages of the individual determinations.
# [2] = target: T2, Kinase insert Domain containing Receptor (KDR: the catalytic domain of the VEGF receptor) (Homo sapiens, UniProt P35968); assay: Inhibition of Kinase insert Domain containing Receptor (KDR) tyrosine kinase activity
# T2 construct: KDR: the catalytic domain of the VEGF receptor
# T2 sequence (P35968 834-1162 limits assumed): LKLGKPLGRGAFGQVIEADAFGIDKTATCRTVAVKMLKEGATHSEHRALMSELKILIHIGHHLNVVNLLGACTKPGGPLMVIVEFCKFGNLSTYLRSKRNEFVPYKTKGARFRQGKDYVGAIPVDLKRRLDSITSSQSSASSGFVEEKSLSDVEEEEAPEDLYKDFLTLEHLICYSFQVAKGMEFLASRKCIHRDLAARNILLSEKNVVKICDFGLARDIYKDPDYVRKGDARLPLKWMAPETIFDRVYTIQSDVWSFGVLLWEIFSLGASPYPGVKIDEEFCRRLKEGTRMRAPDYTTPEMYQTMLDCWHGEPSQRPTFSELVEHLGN
# Text: Inhibition of Kinase insert Domain containing Receptor (KDR: the catalytic domain of the VEGF receptor)
# In this standard pharmacological test procedure, KDR protein is mixed, in the presence or absence of a inhibitor compound, with a substrate peptide to be phosphorylated (a copolymer of glutamic acid and tyrosine, E:Y :: 4:1) and other cofactors such as Mg^++ and sodium vanadate (a protein tyrosine phosphatase inhibitor) in an appropriate buffer to maintain pH (7.2). ATP and a radioactive tracer (either P^32- or P^33- labeled ATP) is then add to initiate phosphorylation. After incubation, the radioactive phosphate associated with the acid-insoluble fraction of the assay mixture is then quantified as reflection of substrate phosphorylation. […] Multiple entries for a given compound indication it was tested multiple times.
# [3] = target: Epithelial Cell Kinase (ECK) (Homo sapiens, UniProt P29317); assay: Inhibition of Epithelial Cell Kinase (ECK) tyrosine kinase activity
# Epithelial Cell Kinase (ECK), sequence (P29317 24-976, species assumed): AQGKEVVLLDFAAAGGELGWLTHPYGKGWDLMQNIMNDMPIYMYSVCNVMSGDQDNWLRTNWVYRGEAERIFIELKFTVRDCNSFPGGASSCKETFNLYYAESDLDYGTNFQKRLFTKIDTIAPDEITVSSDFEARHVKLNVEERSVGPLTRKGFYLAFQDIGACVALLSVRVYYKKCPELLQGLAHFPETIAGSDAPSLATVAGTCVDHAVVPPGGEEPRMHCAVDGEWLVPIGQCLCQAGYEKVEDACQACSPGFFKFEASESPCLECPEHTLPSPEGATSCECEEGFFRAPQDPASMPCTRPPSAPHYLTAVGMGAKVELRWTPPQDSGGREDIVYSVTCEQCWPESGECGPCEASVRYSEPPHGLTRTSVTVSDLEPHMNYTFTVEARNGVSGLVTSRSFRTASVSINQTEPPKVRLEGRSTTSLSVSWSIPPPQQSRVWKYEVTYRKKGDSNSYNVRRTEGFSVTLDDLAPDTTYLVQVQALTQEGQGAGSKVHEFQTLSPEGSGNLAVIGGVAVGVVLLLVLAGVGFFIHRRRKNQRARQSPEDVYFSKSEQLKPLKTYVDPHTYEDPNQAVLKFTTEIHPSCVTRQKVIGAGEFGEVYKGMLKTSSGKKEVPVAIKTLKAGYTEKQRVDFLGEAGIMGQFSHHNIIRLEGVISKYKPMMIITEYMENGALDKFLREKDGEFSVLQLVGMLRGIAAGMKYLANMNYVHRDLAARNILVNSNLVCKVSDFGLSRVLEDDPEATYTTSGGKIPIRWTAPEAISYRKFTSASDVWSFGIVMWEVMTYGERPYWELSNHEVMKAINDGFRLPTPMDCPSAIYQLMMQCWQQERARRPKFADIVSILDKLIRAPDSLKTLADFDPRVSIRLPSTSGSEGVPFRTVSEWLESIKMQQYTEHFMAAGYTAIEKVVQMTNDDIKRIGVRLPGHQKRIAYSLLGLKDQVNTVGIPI
# Experimental: In this standard pharmacological test procedure, a biotinylated peptide substrate is first immobilized on neutravidin-coated microtiter plates. The test drug, the Epithelial Cell Kinase (ECK), Mg^++, sodium vanadate (a protein tyrosine phosphatase inhibitor), and an appropriate buffer to maintain pH (7.2) are then added to the immobilized substrate-containing microtiter wells. ATP is then added to initiate phosphorylation. After incubation, the assay plates are washed with a suitable buffer leaving behind phosphorylated peptide which is exposed to horse radish peroxidase (HRP)-conjugated anti-phosphotyrosine monoclonal antibody. The antibody-treated plates are washed again and the HRP activity in individual wells is quantified as a reflection of degree of substrate phosphorylation. […] Multiple entries for a given compound indication it was tested multiple times.
# [4] = target: Mek and Erk (Homo sapiens, UniProt P28482+Q02750); assay: Mitogen Activated Protein Kinase (MAPK) coupled assay (Mek-Erk); details: coupled MEK 1 / ERK2; separate entries = separate tests; read-out: Mek and Erk
# Mek and Erk, sequence (Q02750 whole entry): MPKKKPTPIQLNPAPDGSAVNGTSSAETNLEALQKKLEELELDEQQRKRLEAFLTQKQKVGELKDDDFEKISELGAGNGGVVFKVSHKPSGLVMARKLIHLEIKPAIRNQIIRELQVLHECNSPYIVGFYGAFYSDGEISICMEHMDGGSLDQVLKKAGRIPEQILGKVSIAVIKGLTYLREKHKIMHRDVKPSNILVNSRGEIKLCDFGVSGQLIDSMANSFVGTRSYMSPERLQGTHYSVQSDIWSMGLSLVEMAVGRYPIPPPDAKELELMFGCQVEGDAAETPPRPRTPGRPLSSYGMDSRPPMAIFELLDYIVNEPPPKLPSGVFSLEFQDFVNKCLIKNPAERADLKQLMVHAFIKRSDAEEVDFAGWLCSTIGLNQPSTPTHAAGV
# Mek and Erk, sequence (P28482 2-360): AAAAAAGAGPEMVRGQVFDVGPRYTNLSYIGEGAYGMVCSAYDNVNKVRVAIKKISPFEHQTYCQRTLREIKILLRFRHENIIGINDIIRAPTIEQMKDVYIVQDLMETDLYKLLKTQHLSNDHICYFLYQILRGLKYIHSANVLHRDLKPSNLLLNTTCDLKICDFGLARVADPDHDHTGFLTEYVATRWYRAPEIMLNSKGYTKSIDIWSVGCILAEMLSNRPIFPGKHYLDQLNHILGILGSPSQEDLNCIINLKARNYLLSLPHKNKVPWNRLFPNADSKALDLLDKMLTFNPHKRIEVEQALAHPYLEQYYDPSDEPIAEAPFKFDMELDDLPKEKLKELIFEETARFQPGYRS
# Experimental: Mitogen Activated Protein Kinase (MAPK) Assay
# To evaluate inhibitors of the MAP (mitogen activated protein) kinase a two component coupled standard pharmacological test procedure, which measures phosphorylation of a serine/threonine residue in an appropriate sequence in the substrate in the presence and absence of a putative inhibitor, was used. Recombinant human MEK 1 (MAPKK) was first used to activate recombinant human ERK2 (MAPK) and the activated MAPK (ERK) was incubated with substrate (MBP peptide or MYC peptide) in the presence of ATP, Mg^+2 and radiolabeled ^33P ATP. The phosphorylated peptide was captured on a P 81 phosphocellulose filter (paper filter or embedded in microtiter plate) washed and counted by scintillation methods.
# The peptide substrates used in the assay are MBP, peptide substrate ([…]), or synthetic Myc substrate, ([…]•5 TFA. The recombinant enzymes used were prepared as GST fusion proteins of human ERK 2 and human MEK 1. Inhibitor samples were prepared as 10X stocks in 10% DMSO and an appropriate aliquot was used to deliver either 10 ug/ml for a single point screening dose or 100, 10, 1, and 0.1 uM final concentration for a dose response curve. Final DMSO concentrations were less than or equal to 1%.
# The reaction was run as follows in 50 mM Tris kinase buffer, pH 7.4 in a reaction volume of 50 ul. The appropriate volume of kinase buffer and inhibitor sample was added to the tube. Appropriate dilution of enzyme was delivered to give 2-5 ug recombinant MAPK (Erk ) per tube. The inhibitor was incubated with MAPK (Erk) for 30 min at 0 deg. C. Recombinant Mek (MAPKK) ( 0.5-2.5 ug) or fully activated Mek (0.05-0.1 units) was added to activate the Erk and incubated for 30 min at 30° C. Then substrate and gamma ^33P ATP was were added to give a final concentration of 0.5- 1 mM MBPP or 250-500 uM Myc; 0.2-0.5 uCi gamma P 33 ATP/tube; 50 µM ATP final concentration. Samples were incubated at 30°C for 30 minutes and the reaction was stopped by adding 25 µl of ice cold 10 %TCA .After samples were chilled on ice for 30 min, 20 µl of sample was transferred onto P 81 phosphocellulose filter paper or appropriate MTP with embedded P 81 filter. Filter papers or MTP were washed 2 times with a large volume of 1% acetic acid, then 2 times with water. The filters or MTP were briefly air dried before addition of scintillant and samples were counted in the appropriate scintillation counter set up for reading ^33P isotope. Samples included a positive control (activated enzyme plus substrate); a no enzyme control; a no substrate control; samples with different concentrations of putative inhibitor; and samples with reference inhibitors (other active compounds or non-specific inhibitors such as staurosporine or K252 B).
# The raw data was captured as cpm. Sample replicates were averaged and corrected for background count. Mean cpm data was tabulated by group and % inhibition by a test compound was calculated as (corrected cpm control- corrected. cpm sample/control) X 100 = % inhibition. […] The results obtained for representative compounds of this invention are listed in TABLE 2 where there may be separate entries for the same compound; this is an indication that the compound was evaluated more than one time.
# T1 sequence (P00533 669-1210): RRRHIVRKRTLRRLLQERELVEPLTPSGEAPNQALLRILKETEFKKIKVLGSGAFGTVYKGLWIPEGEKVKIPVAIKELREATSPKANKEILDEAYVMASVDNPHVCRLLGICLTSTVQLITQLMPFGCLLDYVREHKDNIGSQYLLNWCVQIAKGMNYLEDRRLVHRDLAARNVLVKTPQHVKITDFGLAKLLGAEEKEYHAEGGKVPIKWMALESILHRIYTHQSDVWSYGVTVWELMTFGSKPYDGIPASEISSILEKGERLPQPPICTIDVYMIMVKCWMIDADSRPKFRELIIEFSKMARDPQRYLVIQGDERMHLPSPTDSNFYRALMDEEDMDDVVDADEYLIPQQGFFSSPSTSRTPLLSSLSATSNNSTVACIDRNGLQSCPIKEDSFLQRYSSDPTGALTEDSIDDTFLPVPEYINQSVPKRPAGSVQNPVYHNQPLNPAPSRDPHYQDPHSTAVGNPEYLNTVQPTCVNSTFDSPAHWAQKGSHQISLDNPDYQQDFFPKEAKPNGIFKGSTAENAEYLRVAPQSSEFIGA
structure (smiles),measurement,setting,value
"N#Cc1cnc2ccc(NC(=O)C#CCN3CCC4(CC3)OCCO4)cc2c1Nc1cccc(Br)c1 [Example 82, 4-(1,4-Dioxa-8-azaspiro[4,5]dec-8-yl)but-2-ynoic Acid [4-(3-Bromophenylamino)-3-cyanoquinolin-6-yl] Amide]",IC50,[1],50 nM
same,IC50,[2],> 1830 nM
same,IC50,[3],> 1830 nM
same,IC50,[4],30000 nM
